This is an account of results in patent US11648239B2, “Azophenols as ERG oncogene inhibitors” (The Henry M. Jackson Foundation for the Advancement of …, priority 2015, dated 2023).

By IC50 is commonly meant the concentration that inhibits the measured activity by half. A low value points to inhibition by little substance.

The target of data set [1] is T1, ERG protein (Homo sapiens, UniProt P11308).
T1 sequence (P11308 1-479): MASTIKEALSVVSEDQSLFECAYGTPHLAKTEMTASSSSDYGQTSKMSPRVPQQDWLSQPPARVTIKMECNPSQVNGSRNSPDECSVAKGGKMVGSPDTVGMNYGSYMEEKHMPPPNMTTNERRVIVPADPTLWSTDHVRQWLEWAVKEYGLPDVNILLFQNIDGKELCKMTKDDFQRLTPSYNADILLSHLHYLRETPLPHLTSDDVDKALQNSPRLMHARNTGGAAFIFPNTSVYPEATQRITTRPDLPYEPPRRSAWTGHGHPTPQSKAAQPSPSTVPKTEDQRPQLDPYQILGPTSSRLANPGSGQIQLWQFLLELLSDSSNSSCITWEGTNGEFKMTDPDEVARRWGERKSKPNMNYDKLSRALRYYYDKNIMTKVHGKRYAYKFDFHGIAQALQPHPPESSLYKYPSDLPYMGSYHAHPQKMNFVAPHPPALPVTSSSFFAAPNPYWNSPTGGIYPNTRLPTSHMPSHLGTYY
As to conditions: PCT US2015/020172; cited from earlier work.

Data set [2] concerns normal primary endothelial cells. As to conditions: PCT US2015/020172; cited from earlier work.
The subject of data set [3] is VCaP cells. Description: VCaP cell growth inhibition. As to conditions: for IC50: VCaP, metastatic prostate cancer, TMPRSS2-ERG fusion, N/D = assay performed, inhibition not detected at the tested levels. The format is cell-based. On the procedure:
Approximately 48 hours following plating of cells, the appropriate test compound is added to each well of the tissue culture dish at a predetermined concentration. The medium was replenished every 24 hours with fresh growth medium containing the same concentration of the same test compound for indicated period of the cell growth inhibition assay. Percent cell growth inhibition was calculated using a hemocytometer for estimating cell density in each of the test wells of the tissue culture dish and trypan blue dye exclusion microscopy and photography to estimate the fraction of viable cells in each test well.
To investigate whether the azophenol compounds selectively arrested the growth of ERG positive cancer cells (VCaP), VCaP cells were cultured to achieve cells in logarithmic growth and these cells were then plated in 6 well tissue culture dishes in duplicates at a cell density of 0.2×10^6 cells per well. The plated cells were exposed to 0, 0.2, 0.4, 0.6, 0.8 and 1 μM concentrations of each compound for a period of 8 days. At the end of time period, cells were recovered from the test plate, washed, trypsinized and the cell density of viable cells were determined with trypan blue dye staining method and automated cell counter Bio-Rad TC10. The IC50 of cell growth inhibition of each compound was determined by trypsinizing the cells at the end of the experiment and counting the cells by using the automated cell counter (Bio-Rad TC10 automated cell counter). The average cell numbers of each concentration were used to calculate the IC50 of each compound with the GraphPad Prism 6 software.

Data set [4] addresses T2, ERG protein (Homo sapiens, UniProt P11308).
T2 construct: host or cells: VCaP
T2 sequence (P11308 33-479 limits assumed): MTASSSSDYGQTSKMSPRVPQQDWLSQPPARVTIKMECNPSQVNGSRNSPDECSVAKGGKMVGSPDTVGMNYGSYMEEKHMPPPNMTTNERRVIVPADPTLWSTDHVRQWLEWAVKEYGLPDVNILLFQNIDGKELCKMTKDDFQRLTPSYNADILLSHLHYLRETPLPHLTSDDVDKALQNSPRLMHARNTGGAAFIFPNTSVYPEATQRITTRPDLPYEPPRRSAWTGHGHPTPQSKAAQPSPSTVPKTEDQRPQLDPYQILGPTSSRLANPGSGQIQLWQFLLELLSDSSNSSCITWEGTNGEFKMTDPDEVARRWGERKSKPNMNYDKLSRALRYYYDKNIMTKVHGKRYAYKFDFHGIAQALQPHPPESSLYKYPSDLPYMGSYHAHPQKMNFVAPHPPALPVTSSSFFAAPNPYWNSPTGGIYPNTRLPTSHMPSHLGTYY
Description: Inhibition of ERG protein in VCaP cells (Western blot). It is filed as cell-based. As to conditions: VCaP, metastatic prostate cancer, TMPRSS2-ERG fusion; N/D = assay performed, inhibition not detected at the tested levels. How it is done:
The TMPRSS2-ERG fusion positive prostate cancer cell line, VCaP (ATCC), was used to identify the test compound inhibitors of ERG expression. Cells were grown in medium using conditions prescribed by the vendor. VCaP cells in logarithmic growth were seeded in a tissue culture dish at a cell density of 2×10^6 cells per plate. Following 48 hours incubation at 37° C., cells were exposed for a period of 48 hours with 0, 0.05, 0.25 and 0.5 μM concentrations of each test azophenol compound. The inhibition of ERG expression was evaluated by an In-cell Western blot assay (LI-COR Biosciences, Lincoln, Nebr.) using the ERG specific CPDR ERG-MAb as further described below.
Inhibition of ERG protein expression by the test compounds were determined by Western blot analysis. The ERG specific monoclonal antibody CPDR ERG-MAb was used as the primary antibody. In brief, Western blot was performed by running a fixed amount of total protein extracted from cell lysates of the treated cells using (4-12% Bis-Tris) gel by electrophoresis, followed by transfer to membrane and incubation with primary antibody and continued with HRP-conjugated secondary antibody. Cultured cells were treated at specific dosages with each of the tested ERG inhibitors. Following incubation of the treated cells for an indicated time period, cells were lysed using Mammalian Protein Extraction Reagent (M-PER; Pierce, Rockford, Ill.) containing a protease inhibitor cocktail and phosphatase inhibitor cocktails I & III (Sigma, St Louis, Mo.). Cell lysates containing 50 μg of total protein were electrophoresed through 4-12% Bis-Tris Gel (Invitrogen, Carlsbad, Calif.) and the cellular proteins were transferred to PVDF membrane (Invitrogen, Carlsbad, Calif.). Membranes were incubated at 4° C. for 12 hours with primary antibodies for AR, PSA, GAPDH, α-Tubulin, apoptosis markers and cell cycle regulators. Following exposure to primary antibodies, the membranes were washed with buffer (3×, 5 minutes each at room temperature) followed by incubation with relevant secondary antibodies for 1 hour at 24° C. Finally, the membranes were washed with buffer and developed using the ECL Western blot detection reagent (GE Health Care, Buckinghamshire, UK). The ERG protein expression of the test azophenol compounds were normalized with GAPDH.
In brief, ERG positive VCaP cells in loganthmic growth phase were plated in 10 cm tissue culture dish at a cell density of 2×10^6 cells per dish. The plated cells were treated with 0, 0.2, 0.4, 0.6, 0.8 and 1 μM concentrations of each azophenol compound for a period of 48 hours. Cells from each dish were then processed for Western blot analysis and alterations in the expression of ERG protein were monitored. Both ERG and GAPDH protein band were quantified from each concentration using Image J (NIH) and ERG band density was normalized with corresponding GAPDH protein control. Relative density of ERG in each concentration was calculated and with Graphpad Prism 6 software, the IC50 of each compound was calculated.

Setting [5] is: 0.3, 0.6, 1.0, 3.0 and 10.0 μM, FIG. 25-30.
The mark [6] stands for this setting: 0.2, 0.4, 0.6, 0.8 and 1 μM, FIG. 19-22, 24.

As to `Oc1ccc2ccccc2c1N=Nc1nccs1` [ERGi-USU], the “inhibition of ERG protein in ERG positive cancer cell lines” value in data set [1] is given as “inhibit the ERG protein”. Moreover, the “effect on normal primary endothelial cells that endogenously express ERG” value in data set [2] is recorded as “minimal effect”.
With `Cc1cc(O)cc(O)c1N=Nc1nccs1` [Compound 4], the “inhibition of VCaP cell growth” value in data set [3] (setting [5]) was “inhibition”. The IC50 worked out at 1120 nM in data set [3] and 1860 nM in data set [4].
On to `Oc1ccc(N=Nc2ccccn2)c(O)c1` [Compound 5], for which the “inhibition of VCaP cell growth” value in data set [3] (setting [6]) and in data set [3] (setting [5]) was “inhibition” each time. Moreover, the figures for the IC50 in data set [3] and in data set [4] were 557 nM and 542 nM, respectively.
For `CN(C)c1ccc(N=Nc2ccc(Br)cn2)c(O)c1` [Compound 7], the “inhibition of VCaP cell growth” value in data set [3] (setting [6]) was “inhibition”. The values for the IC50 in data set [3] and in data set [4] were 626 nM and 559 nM, respectively.
As to `CN(C)c1ccc(N=Nc2ccccn2)c(O)c1` [Compound 6], the “inhibition of VCaP cell growth” value is listed as “inhibition” in data set [3] (0.02, 0.05, 0.10, 0.20 and 0.40 μM, FIG. 23); “inhibition” in data set [3] (setting [6]). The IC50 in data set [3] amounted to 73.9 nM; in data set [4], 273 nM.
For the molecule `Cc1cc(N=Nc2nccs2)c(O)cc1O` [Compound 3], the “inhibition of VCaP cell growth” value in data set [3] (setting [5]) was “inhibition”. Further, the IC50 in data set [3] was determined as 4070 nM; in data set [4], 1350 nM.
